Measured values published in ChEMBL document CHEMBL2396574, “Design, synthesis and evaluation of retinoids with novel bulky hydrophobic partial structures” (Bioorg Med Chem, 2013).
The source made the active and inactive calls. The calls are words filed in the database; no cut-off is given here.

What was measured:
[1] = target: T1, Retinoic acid receptor gamma (Homo sapiens) (UniProt P13631); assay: Transactivation of Gal4-fused RARgamma (unknown origin) expressed in African green monkey COS1 cells at 100 nM by luciferase reporter gene assay relative to DMSO-treated control; type: cell-based; settings: COS-1
T1 sequence (whole entry): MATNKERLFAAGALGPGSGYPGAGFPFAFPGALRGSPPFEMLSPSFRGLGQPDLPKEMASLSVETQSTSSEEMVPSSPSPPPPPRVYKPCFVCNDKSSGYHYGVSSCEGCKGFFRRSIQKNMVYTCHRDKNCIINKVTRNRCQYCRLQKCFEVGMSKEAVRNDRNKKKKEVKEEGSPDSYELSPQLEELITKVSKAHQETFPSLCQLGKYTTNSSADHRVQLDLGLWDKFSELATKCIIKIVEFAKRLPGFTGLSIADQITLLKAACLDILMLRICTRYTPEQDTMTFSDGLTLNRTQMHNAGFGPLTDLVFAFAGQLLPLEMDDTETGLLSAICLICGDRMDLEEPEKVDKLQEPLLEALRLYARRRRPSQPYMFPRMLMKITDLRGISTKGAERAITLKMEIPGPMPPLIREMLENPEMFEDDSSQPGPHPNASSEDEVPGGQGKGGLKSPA

[2] = target: T2, Retinoic acid receptor RXR-beta (Homo sapiens) (UniProt P28702); assay: Transactivation of full-length RXRbeta (unknown origin) expressed in African green monkey COS1 cells at 1000 nM by luciferase reporter gene assay; type: cell-based; settings: COS-1
T2 sequence (whole entry): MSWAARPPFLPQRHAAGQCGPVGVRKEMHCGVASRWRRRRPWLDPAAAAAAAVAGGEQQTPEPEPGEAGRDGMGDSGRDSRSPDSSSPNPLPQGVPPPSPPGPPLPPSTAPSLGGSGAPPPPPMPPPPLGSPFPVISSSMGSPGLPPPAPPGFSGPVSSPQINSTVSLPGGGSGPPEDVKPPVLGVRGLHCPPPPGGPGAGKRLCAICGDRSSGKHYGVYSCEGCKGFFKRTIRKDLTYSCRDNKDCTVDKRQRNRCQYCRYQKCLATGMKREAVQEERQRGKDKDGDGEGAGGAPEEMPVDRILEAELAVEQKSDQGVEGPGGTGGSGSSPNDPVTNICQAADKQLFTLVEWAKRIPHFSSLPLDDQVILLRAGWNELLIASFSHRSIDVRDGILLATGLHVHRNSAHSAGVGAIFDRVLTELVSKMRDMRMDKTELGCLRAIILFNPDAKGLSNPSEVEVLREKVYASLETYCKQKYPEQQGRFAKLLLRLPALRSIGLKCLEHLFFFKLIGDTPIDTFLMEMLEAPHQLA

[3] = test system: HL-60; assay: Induction of human HL60 cell differentiation into myeloid cells at 10 nM after 4 days by NBT reduction assay relative to control; type: functional
[4] = test system: HL-60; assay: Induction of human HL60 cell differentiation into myeloid cells at 100 nM after 4 days by NBT reduction assay relative to control; type: functional
[5] = test system: HL-60; assay: Induction of human HL60 cell differentiation into myeloid cells at 10^-6 M after 4 days by NBT reduction assay; type: functional, cell-based
[6] = target: T3, Retinoic acid receptor beta (Homo sapiens) (UniProt P10826); assay: Transactivation of Gal4-fused RARbeta (unknown origin) expressed in African green monkey COS1 cells at 100 nM by luciferase reporter gene assay relative to DMSO-treated control; type: cell-based; settings: COS-1
T3 sequence (whole entry): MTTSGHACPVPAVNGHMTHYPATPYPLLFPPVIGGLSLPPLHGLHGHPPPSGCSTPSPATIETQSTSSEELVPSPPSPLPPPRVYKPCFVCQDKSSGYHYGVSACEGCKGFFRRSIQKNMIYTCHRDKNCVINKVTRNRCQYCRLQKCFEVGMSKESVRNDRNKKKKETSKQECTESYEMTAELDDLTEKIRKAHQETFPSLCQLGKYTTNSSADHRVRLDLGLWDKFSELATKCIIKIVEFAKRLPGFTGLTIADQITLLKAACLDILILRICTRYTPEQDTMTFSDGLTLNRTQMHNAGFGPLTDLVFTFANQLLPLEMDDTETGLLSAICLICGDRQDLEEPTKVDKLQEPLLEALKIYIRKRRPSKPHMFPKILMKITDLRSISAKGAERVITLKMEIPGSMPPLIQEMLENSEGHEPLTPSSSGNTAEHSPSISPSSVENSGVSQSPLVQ

[7] = target: T4, Retinoic acid receptor RXR-gamma (Homo sapiens) (UniProt P48443); assay: Transactivation of full-length RXRgamma (unknown origin) expressed in African green monkey COS1 cells at 1000 nM by luciferase reporter gene assay; type: cell-based; settings: COS-1
T4 sequence (whole entry): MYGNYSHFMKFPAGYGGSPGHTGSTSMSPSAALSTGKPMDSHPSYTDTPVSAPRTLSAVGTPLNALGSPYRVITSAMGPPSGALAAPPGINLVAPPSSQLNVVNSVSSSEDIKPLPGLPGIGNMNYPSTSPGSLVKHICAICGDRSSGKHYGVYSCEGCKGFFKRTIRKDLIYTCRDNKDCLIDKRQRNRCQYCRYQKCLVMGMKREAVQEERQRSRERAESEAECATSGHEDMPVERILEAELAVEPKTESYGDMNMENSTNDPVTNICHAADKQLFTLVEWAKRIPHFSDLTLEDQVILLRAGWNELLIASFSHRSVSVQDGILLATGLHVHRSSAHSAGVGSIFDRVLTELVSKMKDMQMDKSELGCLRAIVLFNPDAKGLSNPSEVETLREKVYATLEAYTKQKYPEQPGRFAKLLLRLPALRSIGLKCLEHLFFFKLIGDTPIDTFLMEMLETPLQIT

fold change (FC) [1]	Activity [2]	fold change (FC) [6]	Activity [7]	SMILES	Activity [3] [%]	Activity [4] [%]	Activity [5]
5	inactive	19	inactive	O=C(Nc1ccc(C(=O)O)c(F)c1)c1cc2c3c(c1)CCCCC3CCCC2	28	44	Active
2	inactive	6	inactive	O=C(Nc1ccc(C(=O)O)c(O)c1)c1cc2c3c(c1)CCCC3CCC2	24	42	
1	inactive	6	inactive	O=C(Nc1ccc(C(=O)O)c(Cl)c1)c1cc2c3c(c1)CCCC3CCC2	16	37	

The remaining lines, values behind:

SMILES	fold change (FC) [1]	Activity [2]	fold change (FC) [6]	Activity [7]	Activity [3] [%]	Activity [4] [%]	Activity [5]
O=C(O)c1ccc(NC(=O)c2cc3c4c(c2)CCCC4CCC3)cc1	3	inactive	18	inactive	27	38	
CC12CCCc3cc(C(=O)Nc4ccc(C(=O)O)c(O)c4)cc(c31)CCC2	1	inactive	7	inactive	17	32	
O=C(O)c1ccc(C(=O)Nc2cc3c4c(c2)CCCCC4CCCC3)cc1	1	inactive	13	inactive	13	53	
